Tests used:
[1] = xn = mol fraction of the nth substance listed; settings: 101 kPa, Liquid
[2] = refractive index (Na D-line) (dimensionless); xn = mol fraction of the nth substance listed; settings: 101 kPa, Liquid

CCCCn1cc[n+](C)c1.[Cl-] [1-butyl-3-methylimidazolium chloride] + CN(C)C=O
Settings	mass density, [1] [kg/m3]	refractive index, [2]	viscosity, [1] [mPa·s]
288.15 K, x1 = 0.0086	957.7	1.43562	1.064
288.15 K, x1 = 0.0172	961.03	1.43757	1.13
288.15 K, x1 = 0.026	964.09	1.4401	1.234
288.15 K, x1 = 0.0351	967.36	1.44223	1.358
288.15 K, x1 = 0.0443	970.51	1.44442	1.441
288.15 K, x1 = 0.0541	973.65	1.4466	1.571
288.15 K, x1 = 0.0638	976.87	1.44861	1.678
288.15 K, x1 = 0.0738	979.65	1.45083	1.865
288.15 K, x1 = 0.0841	982.76	1.45282	2.004
288.15 K, x1 = 0.0947	985.77	1.45492	2.24
288.15 K, x1 = 0.1056	988.72	1.45766	2.397
288.15 K, x1 = 0.1167	991.56	1.45909	2.589
288.15 K, x1 = 0.1282	994.51	1.46111	2.95
288.15 K, x1 = 0.1399	997.33	1.46315	3.196
288.15 K, x1 = 0.152	1000.15	1.46516	3.685
298.15 K, x1 = 0.0086	948.35	1.43088	0.9285
298.15 K, x1 = 0.0172	951.98	1.43313	0.9836
298.15 K, x1 = 0.026	954.91	1.43537	1.069
298.15 K, x1 = 0.0351	958.49	1.43761	1.173
298.15 K, x1 = 0.0443	961.51	1.4398	1.234
298.15 K, x1 = 0.0541	964.75	1.44206	1.343
298.15 K, x1 = 0.0638	968.06	1.44422	1.444
298.15 K, x1 = 0.0738	970.86	1.44638	1.59
298.15 K, x1 = 0.0841	974.08	1.44852	1.679
298.15 K, x1 = 0.0947	977.24	1.45063	1.8
298.15 K, x1 = 0.1056	980.16	1.45271	1.978
298.15 K, x1 = 0.1167	983.01	1.45475	2.126
298.15 K, x1 = 0.1282	986.1	1.45676	2.379
298.15 K, x1 = 0.1399	988.96	1.45871	2.582
298.15 K, x1 = 0.152	991.87	1.46064	2.907
308.15 K, x1 = 0.0086	938.9	1.42611	0.8223
308.15 K, x1 = 0.0172	942.61	1.42836	0.8668
308.15 K, x1 = 0.026	945.63	1.4306	0.9394
308.15 K, x1 = 0.0351	949.34	1.43285	1.022
308.15 K, x1 = 0.0443	952.42	1.43505	1.097
308.15 K, x1 = 0.0541	955.77	1.43731	1.166
308.15 K, x1 = 0.0638	959.15	1.43948	1.239
308.15 K, x1 = 0.0738	962.05	1.44163	1.362
308.15 K, x1 = 0.0841	965.29	1.44378	1.432
308.15 K, x1 = 0.0947	968.56	1.4459	1.524
308.15 K, x1 = 0.1056	971.53	1.44799	1.665
308.15 K, x1 = 0.1167	974.49	1.45003	1.782
308.15 K, x1 = 0.1282	977.64	1.45205	1.963
308.15 K, x1 = 0.1399	980.61	1.45401	2.135
308.15 K, x1 = 0.152	983.6	1.45595	2.351
318.15 K, x1 = 0.0086	929.42	1.42147	0.7351
318.15 K, x1 = 0.0172	933.2	1.42379	0.772
318.15 K, x1 = 0.026	936.41	1.42611	0.8352
318.15 K, x1 = 0.0351	940.14	1.42842	0.8995
318.15 K, x1 = 0.0443	943.38	1.43069	0.9641
318.15 K, x1 = 0.0541	946.75	1.43303	1.026
318.15 K, x1 = 0.0638	950.28	1.43526	1.078
318.15 K, x1 = 0.0738	953.24	1.43748	1.175
318.15 K, x1 = 0.0841	956.58	1.4397	1.241
318.15 K, x1 = 0.0947	959.89	1.44188	1.311
318.15 K, x1 = 0.1056	962.99	1.44402	1.424
318.15 K, x1 = 0.1167	966.03	1.44612	1.518
318.15 K, x1 = 0.1282	969.28	1.4482	1.651
318.15 K, x1 = 0.1399	972.26	1.45021	1.796
318.15 K, x1 = 0.152	975.4	1.45219	1.944

Source: the NIST ThermoML archive (doi:10.1021/je4009238)
